“And” between values parts separate entries of the source, which are not always exact repeats. Equal values may be shown once.
Assays:
[1] = Shake-flask solubility with spectrophotometric measurement in aqueous DES mixtures; assay type: physicochemical
Description: (§1) In order to determine the solubility of the three studied phenolic acids in deep eutectic solvents, a very well-established shake-flask method coupled with spectrophotometric measurements was utilized. The initial procedure involved the preparation of various DESs, which was conducted by mixing their HBA and HBD counterparts in a glass vessel and heating the composition until the formation of a transparent, uniform liquid. […] For additional measurements, the DESs were mixed with water in varying proportions, creating aqueous DES systems. Saturated solutions of CAF, SYR, and COU were obtained by adding excess amounts of these compounds to test tubes containing either a neat deep eutectic solvent or its aqueous solution. Such samples were placed in the Orbital Shaker Incubator ES-20/60 from Biosan (Riga, Latvia) and heated for 24 h at 25 °C, 30 °C, 35 °C, and 40 °C (±0.1 °C) with simultaneous mixing at 60 rpm. Before measurements, the samples were filtered using a PTFE syringe filter from Qpore (Dallas, TX, USA) with a 0.22 μm pore size. In order to avoid possible precipitation of the saturated solutions at decreased temperatures, the test tubes, syringes, pipette tips, and filters were kept at a temperature identical to that of the samples. The spectrophotometric measurements required the preparation of calibration curves for the three APIs. This involved the preparation of a stock solution of each compound in methanol, which was later successfully diluted, and the obtained solutions of varying concentrations were measured using an A360 spectrophotometer from AOE Instruments (Shanghai, China). The wavelength range was set to 200-500 nm, and the resolution was 1 nm. The analytical wavelengths were determined to be 324 nm for caffeic acid, 273 nm for syringic acid, and 308 nm for p-coumaric acid. The final regression equations, obtained after averaging three distinct sets of measurements, are collected in Table 2 together with determination coefficients and limits of detection (LOD) and quantification (LOQ) for the calibration curves. The measurements of the samples were conducted with the same spectrophotometer and identical settings. Methanol was used for the dilution of the samples so that they could remain within the linearity range of the method. Complete spectra of the samples were recorded, but for the solubility determination, the absorbance values at a specific analytical wavelength were considered. These values were combined with the corresponding regression equations of the calibration curves and served for the calculation of the concentration of the three phenolic acids in the studied samples. The densities of such samples were also measured, and for this task 1 mL of each sample was weighed to a precision of 0.1 mg using an AS 110 R2.PLUS analytical balance from […] (Radom, Poland). The obtained densities enabled the calculation of mole fractions of CAF, SYR, and COU dissolved in the studied DESs. For each considered system, three distinct measurements were conducted, and the results were averaged.

[2] = Shake-flask solubility with spectrophotometric measurement in neat deep eutectic solvents; assay type: physicochemical
Description: as §1

Mole fraction solubility ([1]; ChCl – TEG 1:2 + water, x*DES 0.3, 35°C): 0.0649±0.0005 mole fraction
Mole fraction solubility ([1]; ChCl – TEG 1:2 + water, x*DES 0.3, 40°C): 0.0862±0.0009 mole fraction
Mole fraction solubility ([1]; ChCl – TEG 1:2 + water, x*DES 0.4, 25°C): 0.0512±0.0003 mole fraction
Mole fraction solubility ([1]; ChCl – TEG 1:2 + water, x*DES 0.4, 30°C): 0.0664±0.0007 mole fraction
Mole fraction solubility ([1]; ChCl – TEG 1:2 + water, x*DES 0.4, 35°C): 0.0861±0.0005 mole fraction
Mole fraction solubility ([1]; ChCl – TEG 1:2 + water, x*DES 0.4, 40°C): 0.1133±0.0008 mole fraction
Mole fraction solubility ([1]; ChCl – TEG 1:2 + water, x*DES 0.5, 25°C): 0.0632±0.0004 mole fraction
Mole fraction solubility ([1]; ChCl – TEG 1:2 + water, x*DES 0.5, 30°C): 0.0790±0.0006 mole fraction
Mole fraction solubility ([1]; ChCl – TEG 1:2 + water, x*DES 0.5, 35°C): 0.1033±0.0010 mole fraction
Mole fraction solubility ([1]; ChCl – TEG 1:2 + water, x*DES 0.5, 40°C): 0.1413±0.0012 mole fraction
Mole fraction solubility ([1]; ChCl – TEG 1:2 + water, x*DES 0.6, 25°C): 0.0774±0.0005 mole fraction
Mole fraction solubility ([1]; ChCl – TEG 1:2 + water, x*DES 0.6, 30°C): 0.0946±0.0004 mole fraction
Mole fraction solubility ([1]; ChCl – TEG 1:2 + water, x*DES 0.6, 35°C): 0.1258±0.0012 mole fraction
Mole fraction solubility ([1]; ChCl – TEG 1:2 + water, x*DES 0.6, 40°C): 0.1692±0.0013 mole fraction
Mole fraction solubility ([1]; ChCl – TEG 1:2 + water, x*DES 0.7, 25°C): 0.0885±0.0008 mole fraction
Mole fraction solubility ([1]; ChCl – TEG 1:2 + water, x*DES 0.7, 30°C): 0.1119±0.0007 mole fraction
Mole fraction solubility ([1]; ChCl – TEG 1:2 + water, x*DES 0.7, 35°C): 0.1523±0.0007 mole fraction
Mole fraction solubility ([1]; ChCl – TEG 1:2 + water, x*DES 0.7, 40°C): 0.2060±0.0014 mole fraction
Mole fraction solubility ([1]; ChCl – TEG 1:2 + water, x*DES 0.8, 25°C): 0.1016±0.0009 mole fraction
Mole fraction solubility ([1]; ChCl – TEG 1:2 + water, x*DES 0.8, 30°C): 0.1348±0.0012 mole fraction
Mole fraction solubility ([1]; ChCl – TEG 1:2 + water, x*DES 0.8, 35°C): 0.1803±0.0006 mole fraction
Mole fraction solubility ([1]; ChCl – TEG 1:2 + water, x*DES 0.8, 40°C): 0.2401±0.0023 mole fraction
Mole fraction solubility ([1]; ChCl – TEG 1:2 + water, x*DES 0.9, 30°C): 0.1368±0.0008 mole fraction
Mole fraction solubility ([1]; ChCl – TEG 1:2 + water, x*DES 0.9, 35°C): 0.1857±0.0007 mole fraction
Mole fraction solubility ([1]; ChCl – TEG 1:2 + water, x*DES 0.9, 40°C): 0.2507±0.0018 mole fraction
Mole fraction solubility ([1]; ChCl – TEG 1:2, x*DES 1.0 (neat DES), 25°C): 0.0997±0.0009 mole fraction
Mole fraction solubility ([1]; ChCl – TEG 1:2, x*DES 1.0 (neat DES), 30°C): 0.1304±0.0012 mole fraction
Mole fraction solubility ([1]; ChCl – TEG 1:2, x*DES 1.0 (neat DES), 35°C): 0.1773±0.0014 mole fraction
Mole fraction solubility ([1]; ChCl – TEG 1:2, x*DES 1.0 (neat DES), 40°C): 0.2433±0.0022 mole fraction
Increase in the solubility compared to the neat DES ([1]; ChCl-TEG 1:2, x*DES = 0.9 (xwater = 0.1), 25 °C): 6%
Solubility increase between 25 °C and 40 °C ([1]; neat DES (x*DES = 1.0) involving betaine (Bet-GLY 1:2)): 205%
Solubility increase between 25 °C and 40 °C ([1]; neat DES (x*DES = 1.0) with choline chloride (ChCl-TEG 1:2)): 244%
Mole fraction solubility ([2]; neat DES Bet - DEG, HBA:HBD molar ratio 1:1, 25 °C): 0.0490±0.0005 mole fraction
Mole fraction solubility ([2]; neat DES Bet - DEG, HBA:HBD molar ratio 1:2, 25 °C): 0.0639±0.0004 mole fraction
Mole fraction solubility ([2]; neat DES Bet - DEG, HBA:HBD molar ratio 1:4, 25 °C): 0.0575±0.0005 mole fraction
Mole fraction solubility ([2]; neat DES Bet - ETG, HBA:HBD molar ratio 1:1, 25 °C): 0.0323±0.0004 mole fraction
Mole fraction solubility ([2]; neat DES Bet - ETG, HBA:HBD molar ratio 1:2, 25 °C): 0.0351±0.0002 mole fraction
Mole fraction solubility ([2]; neat DES Bet - GLY, HBA:HBD molar ratio 1:1, 25 °C): 0.0670±0.0005 mole fraction
Mole fraction solubility ([2]; neat DES Bet - GLY, HBA:HBD molar ratio 1:2, 25 °C): 0.0898 mole fraction
Mole fraction solubility ([2]; neat DES Bet - GLY, HBA:HBD molar ratio 1:2, 25 °C, listed as coumaric acid): 0.0898±0.0003 mole fraction
Mole fraction solubility ([2]; neat DES Bet - GLY, HBA:HBD molar ratio 1:4, 25 °C): 0.0739±0.0004 mole fraction
Mole fraction solubility ([2]; neat DES Bet - TEG, HBA:HBD molar ratio 1:1, 25 °C): 0.0648±0.0006 mole fraction
Mole fraction solubility ([2]; neat DES Bet - TEG, HBA:HBD molar ratio 1:2, 25 °C): 0.0894±0.0005 mole fraction
Mole fraction solubility ([2]; neat DES Bet - TEG, HBA:HBD molar ratio 1:4, 25 °C): 0.0778±0.0005 mole fraction
Mole fraction solubility ([2]; neat DES ChCl - DEG, HBA:HBD molar ratio 1:1, 25 °C): 0.0644±0.0004 mole fraction
Mole fraction solubility ([2]; neat DES ChCl - DEG, HBA:HBD molar ratio 1:2, 25 °C): 0.0775±0.0005 mole fraction
Mole fraction solubility ([2]; neat DES ChCl - ETG, HBA:HBD molar ratio 1:1, 25 °C): 0.0387±0.0004 mole fraction
Mole fraction solubility ([2]; neat DES ChCl - ETG, HBA:HBD molar ratio 1:2, 25 °C): 0.0470±0.0003 mole fraction
Mole fraction solubility ([2]; neat DES ChCl - ETG, HBA:HBD molar ratio 1:4, 25 °C): 0.0411±0.0004 mole fraction
Mole fraction solubility ([2]; neat DES ChCl - TEG, HBA:HBD molar ratio 1:2, 25 °C): 0.0997 mole fraction
SMILES: O=C(O)C=Cc1ccc(O)cc1 [p-coumaric acid, 4-hydroxycinnamic acid]
Mole fraction solubility ([1]; ChCl – TEG 1:2 + water, x*DES 0.9, 25°C): 0.1054 mole fraction and 0.1054±0.0008 mole fraction

Reference: article PMC12564265, “Navigating the Deep Eutectic Solvent Landscape: Experimental and Machine Learning Solubility Explorations of Syringic, p-Coumaric, and Caffeic Acids” (International Journal of Molecular Sciences, 2025)
